Assay results as given in ChEMBL document CHEMBL1141727, “Isolation and cytotoxic evaluation of marine sponge-derived norterpene peroxides” (J Nat Prod, 1998).

Key:
Assay type in all cases: functional
[1] = Growth inhibition of human MCF7/ADR resistant cells; conditions: NCI/ADR-RES
[2] = system: A549; assay: Growth inhibition of human A549 cells
[3] = system: HCT-116; assay: Growth inhibition of human HCT116 cells
[4] = system: HOP-62; assay: Growth inhibition of human HOP62 cells
[5] = Growth inhibition of mouse M17/ADR cells assessed as zone units at 50 ug/disk by disk diffusion agar colony formation assay
[6] = system: NCI-H226; assay: Growth inhibition of human NCI-H226 cells
[7] = system: L1210; assay: Growth inhibition of mouse L1210 cells assessed as zone units at 50 ug/disk by disk diffusion agar colony formation assay
[8] = system: PO3; assay: Growth inhibition of mouse PO3 cells assessed as zone units at 50 ug/disk by disk diffusion agar colony formation assay
[9] = system: LOX IMVI; assay: Growth inhibition of human LOXIMVI cells
[10] = system: T47D; assay: Growth inhibition of human T47D cells
[11] = system: NCI-H460; assay: Growth inhibition of human NCI-H460 cells
[12] = system: SN12C; assay: Growth inhibition of human SN12C cells
[13] = system: HCT-15; assay: Growth inhibition of human HCT15 cells
[14] = system: SK-MEL-2; assay: Growth inhibition of human SK-MEL-2 cells
[15] = system: OVCAR-5; assay: Growth inhibition of human OVCAR5 cells
[16] = system: MCF7; assay: Growth inhibition of human MCF7 cells
[17] = system: NCI-H322M; assay: Growth inhibition of human NCI-H322M cells
[18] = system: SK-MEL-5; assay: Growth inhibition of human SK-MEL-5 cells
[19] = system: HL-60(TB); assay: Growth inhibition of human HL-60(TB) cells
[20] = system: HCC 2998; assay: Growth inhibition of human HCC2998 cells
[21] = system: SK-OV-3; assay: Growth inhibition of human SKOV3 cells
[22] = system: COLO 205; assay: Growth inhibition of human COLO205 cells
[23] = system: BT-549; assay: Growth inhibition of human BT549 cells
[24] = Growth inhibition of human H116 cells assessed as zone units at 50 ug/disk by disk diffusion agar colony formation assay
[25] = system: EKVX; assay: Growth inhibition of human EKVX cells
[26] = system: UO-31; assay: Growth inhibition of human UO31 cells
[27] = system: MDA-MB-435; assay: Growth inhibition of human MDA-MB-435 cells
[28] = system: 786-0; assay: Growth inhibition of human 786-0 cells
[29] = system: SF-268; assay: Growth inhibition of human SF268 cells
[30] = system: HT-29; assay: Growth inhibition of human HT-29 cells
[31] = system: SK-MEL-28; assay: Growth inhibition of human SK-MEL-28 cells
[32] = system: UACC-257; assay: Growth inhibition of human UACC257 cells
[33] = system: ACHN; assay: Growth inhibition of human ACHN cells
[34] = system: MDA-N; assay: Growth inhibition of human MDA-N cells
[35] = system: A498; assay: Growth inhibition of human A498 cells
[36] = system: TK-10; assay: Growth inhibition of human TK10 cells
[37] = system: NCI-H23; assay: Growth inhibition of human NCI-H23 cells
[38] = system: SF-539; assay: Growth inhibition of human SF539 cells
[39] = system: IGROV-1; assay: Growth inhibition of human IGROV1 cells
[40] = system: U-251; assay: Growth inhibition of human U251 cells
[41] = system: SW-620; assay: Growth inhibition of human SW620 cells
[42] = system: PC-3; assay: Growth inhibition of human PC3 cells
[43] = system: M14; assay: Growth inhibition of human M14 cells
[44] = system: CAKI-1; assay: Growth inhibition of human Caki1 cells
[45] = system: P388; assay: Growth inhibition of mouse P388 cells assessed as zone units at 50 ug/disk by disk diffusion agar colony formation assay
[46] = system: SNB-19; assay: Growth inhibition of human SNB19 cells
[47] = system: HOP-92; assay: Growth inhibition of human HOP92 cells
[48] = system: MOLT-4; assay: Growth inhibition of human MOLT4 cells
[49] = system: MDA-MB-231; assay: Growth inhibition of human MDA-MB-231 cells
[50] = system: OVCAR-3; assay: Growth inhibition of human OVCAR-3 cells
[51] = system: OVCAR-8; assay: Growth inhibition of human OVCAR8 cells
[52] = system: KM12; assay: Growth inhibition of human KM12 cells
[53] = system: SF-295; assay: Growth inhibition of human SF295 cells
[54] = system: RXF 393; assay: Growth inhibition of human […] cells
[55] = system: SNB-75; assay: Growth inhibition of human SNB75 cells
[56] = system: OVCAR-4; assay: Growth inhibition of human OVCAR4 cells
[57] = system: Malme-3M; assay: Growth inhibition of human MALME-3M cells
[58] = Growth inhibition of human […] cells
[59] = system: K562; assay: Growth inhibition of human K562 cells
[60] = system: DU-145; assay: Growth inhibition of human DU145 cells
[61] = system: CCRF-CEM; assay: Growth inhibition of human CCRF-CEM cells
[62] = system: UACC-62; assay: Growth inhibition of human UACC62 cells
[63] = Growth inhibition of human H125 cells assessed as zone units at 50 ug/disk by disk diffusion agar colony formation assay
[64] = system: NCI-H522; assay: Growth inhibition of human NCI-H522 cells
[65] = system: SR; assay: Growth inhibition of human SR cells

Question: Which results are given for `C=C1CCC[C@H]2[C@](C)(CC[C@]3(C)CC[C@@H]([C@@H](C)C(=O)O)OO3)[C@@H](C)CC[C@]12C` [SIGMOSCEPTRELLIN C]?
Answer: GI50 [1]: 770 nM; GI50 [2]: 940 nM; GI50 [3]: 1060 nM; GI50 [4]: 1040 nM; Activity [5]: 220 Zone units; GI50 [6]: > 5000 nM; Activity [7]: 220 Zone units; Activity [8]: 190 Zone units; GI50 [9]: 160 nM; GI50 [10]: 860 nM; GI50 [11]: 600 nM; GI50 [12]: 780 nM; GI50 [13]: 1160 nM; GI50 [14]: > 5000 nM; GI50 [15]: 2720 nM; GI50 [16]: 3790 nM; GI50 [17]: 4190 nM; GI50 [18]: 1940 nM; GI50 [19]: 140 nM; GI50 [20]: 1030 nM; GI50 [21]: 970 nM; GI50 [22]: 970 nM; GI50 [23]: 960 nM; Activity [24]: 230 Zone units; GI50 [25]: 1090 nM; GI50 [26]: 900 nM; GI50 [27]: 2060 nM; GI50 [28]: 500 nM; GI50 [29]: 1040 nM; GI50 [30]: 1030 nM; GI50 [31]: 2370 nM; GI50 [32]: > 5000 nM; GI50 [33]: 920 nM; GI50 [34]: 910 nM; GI50 [35]: 1590 nM; GI50 [36]: 1490 nM; GI50 [37]: 1000 nM; GI50 [38]: 1070 nM; GI50 [39]: 100 nM; GI50 [40]: 930 nM; GI50 [41]: 1160 nM; GI50 [42]: 1770 nM; GI50 [43]: > 5000 nM; GI50 [44]: 600 nM; Activity [45]: 220 Zone units; GI50 [46]: > 5000 nM; GI50 [47]: 1080 nM; GI50 [48]: 840 nM; GI50 [49]: 1810 nM; GI50 [50]: 990 nM; GI50 [51]: 2530 nM; GI50 [52]: 950 nM; GI50 [53]: 820 nM; GI50 [54]: 2950 nM; GI50 [55]: 830 nM; GI50 [56]: 950 nM

Question: With `C=C1CCCC(C)(C)C1(O)CC/C(C)=C/CC[C@]1(C)CC[C@@H]([C@@H](C)C(=O)OC)OO1` (some centres not stated) [MUQUBILIN B] as the compound, how does the GI50 [1] read?
Answer: > 17500 nM

Question: And the GI50 [2]?
Answer: > 17500 nM

Question: And the GI50 [57]?
Answer: > 17500 nM

Question: And the GI50 [3]?
Answer: > 17500 nM

Question: And the GI50 [4]?
Answer: > 17500 nM

Question: And the GI50 [58]?
Answer: > 17500 nM

Question: What about the GI50 [6] of the same compound?
Answer: > 17500 nM

Question: And the Activity [7]?
Answer: 80 Zone units

Question: And the Activity [8]?
Answer: 90 Zone units

Question: What about the GI50 [9] of the same compound?
Answer: 5220 nM

Question: And the GI50 [13]?
Answer: > 17500 nM

Question: And the GI50 [14]?
Answer: > 17500 nM

Question: What about the GI50 [15] of the same compound?
Answer: > 17500 nM

Question: What about the GI50 [16] of the same compound?
Answer: > 17500 nM

Question: What about the GI50 [17] of the same compound?
Answer: > 17500 nM

Question: What about the GI50 [59] of the same compound?
Answer: > 17500 nM

Question: What about the GI50 [18] of the same compound?
Answer: > 17500 nM

Question: What about the GI50 [19] of the same compound?
Answer: > 17500 nM

Question: What about the GI50 [20] of the same compound?
Answer: > 17500 nM

Question: What about the GI50 [21] of the same compound?
Answer: > 17500 nM

Question: And the GI50 [22]?
Answer: > 17500 nM

Question: And the GI50 [25]?
Answer: > 17500 nM

Question: What about the GI50 [26] of the same compound?
Answer: > 17500 nM

Question: And the GI50 [27]?
Answer: > 17500 nM

Question: What about the GI50 [28] of the same compound?
Answer: > 17500 nM

Question: What about the GI50 [30] of the same compound?
Answer: > 17500 nM

Question: And the GI50 [31]?
Answer: > 17500 nM

Question: What about the GI50 [32] of the same compound?
Answer: > 17500 nM

Question: And the GI50 [33]?
Answer: > 17500 nM

Question: And the GI50 [35]?
Answer: > 17500 nM

Question: And the GI50 [36]?
Answer: > 17500 nM

Question: What about the GI50 [37] of the same compound?
Answer: > 17500 nM

Question: And the GI50 [38]?
Answer: > 17500 nM

Question: And the GI50 [39]?
Answer: 2420 nM

Question: What about the GI50 [40] of the same compound?
Answer: > 17500 nM

Question: And the GI50 [41]?
Answer: > 17500 nM

Question: And the GI50 [60]?
Answer: > 17500 nM

Question: What about the GI50 [43] of the same compound?
Answer: > 17500 nM

Question: And the GI50 [44]?
Answer: > 17500 nM

Question: What about the Activity [45] of the same compound?
Answer: 80 Zone units

Question: What about the GI50 [46] of the same compound?
Answer: > 17500 nM

Question: What about the GI50 [47] of the same compound?
Answer: > 17500 nM

Question: What about the GI50 [48] of the same compound?
Answer: > 17500 nM

Question: What about the GI50 [61] of the same compound?
Answer: > 17500 nM

Question: And the GI50 [49]?
Answer: > 17500 nM

Question: What about the GI50 [62] of the same compound?
Answer: > 17500 nM

Question: What about the GI50 [50] of the same compound?
Answer: > 17500 nM

Question: What about the GI50 [51] of the same compound?
Answer: > 17500 nM

Question: What about the Activity [63] of the same compound?
Answer: 0 Zone units

Question: What about the GI50 [52] of the same compound?
Answer: > 17500 nM

Question: What about the GI50 [53] of the same compound?
Answer: > 17500 nM

Question: And the GI50 [54]?
Answer: > 17500 nM

Question: And the GI50 [55]?
Answer: 15000 nM

Question: And the GI50 [64]?
Answer: 12800 nM

Question: What about the GI50 [65] of the same compound?
Answer: > 17500 nM

Question: And the GI50 [56]?
Answer: > 17500 nM
